According to PubChem BioAssay (NCI):
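Five compound concentrations were applied to cells in 96-well plates for 48 hours; endpoints were derived by simple linear interpolation of the resulting dose-response curve. TGI: total growth inhibition.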 Activity calls are given as the source filed them. No stated cut-off is given here; in the data, active means GI50 below about 0.43 µM; inactive means the rest.

Experiments:
Assay in all cases: NCI tumour cell line growth inhibition, 48 h
P388 leukemia = test system: P388 leukemia
DLD-1 colon = test system: DLD-1 colon
M19-MEL melanoma = test system: M19-MEL melanoma
SNB-78 CNS = test system: SNB-78 CNS
SN12K1 renal = test system: SN12K1 renal
BT-549 breast = test system: BT-549 breast
MDA-N = test system: MDA-N
786-0 renal = test system: 786-0 renal
LXFL 529 NSCLC = test system: LXFL 529 NSCLC

| Compound | TGI (DLD-1 colon) [µM] | TGI (M19-MEL melanoma) [µM] | TGI (SNB-78 CNS) [µM] | TGI (MDA-N) [µM] | further results |
| --- | --- | --- | --- | --- | --- |
| O=NN1C(c2ccccc2)CCCC1c1ccccc1 (stereo not given) | > 100 | > 100 | > 100 | – | TGI (P388 leukemia): 81.8 µM; TGI (SN12K1 renal): > 100 µM |
| CCOC(=O)C1=C(c2ccccc2)C12N(Cc1ccccc1)C(=O)C2(c1ccccc1)c1ccccc1 (stereo not given) | – | – | – | > 100 | TGI (BT-549 breast): > 100 µM |
| O=P(O)(O)CN1CCNCCN(CP(=O)(O)O)CCN(CP(=O)(O)O)CCNCC1 | – | – | – | – | outcome (786-0 renal): inactive |
| C[N+]1([O-])[C@H]2CC(OC(=O)[C@H](CO)c3ccccc3)C[C@H]1[C@H]1O[C@H]12 (stereo not given in full) | – | – | – | > 100 | TGI (786-0 renal): > 100 µM; TGI (BT-549 breast): > 100 µM |
| O=Cc1c(Br)[nH]c2ccccc12 | > 100 | > 100 | > 100 | – | TGI (P388 leukemia): > 100 µM; TGI (SN12K1 renal): > 100 µM |
| COc1ccc([C@H]2c3cc4c(cc3OC(O)(CO)[C@H]2C(=O)O)OCO4)c(OC)c1 (stereo not given in full) (tested in a mixture with another compound) | > 100 | > 100 | > 100 | – | TGI (LXFL 529 NSCLC): > 100 µM |
| Cc1cc2oc3c(ccc(=O)n3C)c(=O)c2c(C)c1Cl | – | – | – | > 100 | – |
| CCCCOc1ccc2c(c1)CC[C@@H]1[C@@H]2CC[C@]2(C)C(=O)N(CCCC)C(=O)C[C@@H]12 | – | – | – | > 100 | TGI (BT-549 breast): > 100 µM |
| O=C(c1ccccc1O)c1cc(-c2ncc3c(=O)c4ccccc4oc3n2)c(-c2ccccc2O)[nH]c1=O | > 61.5 | > 68.2 | > 88.1 | – | TGI (P388 leukemia): 47.8 µM; TGI (SN12K1 renal): 35.1 µM |
| O=C(Nc1ccc(Sc2ccc(N=Nc3c(O)c(S(=O)(=O)O)cc4cc(S(=O)(=O)O)ccc34)cc2)cc1)c1ccc(N=Nc2c(O)c(S(=O)(=O)O)cc3cc(S(=O)(=O)O)ccc23)cc1 | > 100 | > 100 | > 100 | – | TGI (786-0 renal): > 100 µM; TGI (LXFL 529 NSCLC): > 100 µM |
| NCCS(=O)(=O)O | – | – | – | > 100 | TGI (786-0 renal): > 100 µM |
